Assay results reported in article PMC5069690, “Hepatic 3D spheroid models for the detection and study of compounds with cholestatic liability” (Scientific Reports, 2016).
Values joined by “and” are separate entries in the source; they are usually repeats but may differ in a detail not shown here. Equal values may be shown once. Read-outs that look alike come from different tables or passages of the source.

How the values were obtained:
[1] = test system: HepaRG spheroids; test: Repeated-exposure toxicity in HepaRG spheroids with or without BA mixture, cellular ATP content; format: cell-based, human
Procedure: Cryopreserved differentiated HepaRG cells (Biopredic International, France) were thawed according to the supplier’s instructions. The cells were seeded in Williams’ medium E with GlutaMAX^TM containing the thaw, seed and general purpose additive (ADD670; Biopredic International). The cells were seeded at a density of 2,000 viable cells per well in ULA plates. From day 5, the spheroids were maintained in medium containing 0.5% DMSO, the serum-free induction additive (ADD650, Biopredic International), 20 ng/ml epidermal growth factor and 10 ng/ml hepatocyte growth factor (HumaXpress, Nordic BioSite, Sweden).
(§1) Toxicity studies were started at day 8 and day 5 for PHH and HepaRG spheroids, respectively.

[2] = test system: multi-donor PHH spheroids; test: Repeated-exposure toxicity in multi-donor PHH spheroids with or without BA mixture, albumin secretion; format: cell-based, human; settings: for EC50: Homo sapiens, 336 h, 14 days repeated exposure
Procedure: The cells were seeded in PHH medium (Williams’ medium E containing 100 units/ml penicillin, 100 μg/ml streptomycin, 2 mM L-glutamine, 10 μg/ml insulin, 5.5 μg/ml transferrin, 6.7 ng/ml sodium selenite, 100 nM dexamethasone) supplemented with 10% fetal bovine serum. […] When PHH had reassembled into compact aggregates (day 4–6 after seeding), spheroids were shifted to serum-free PHH medium. […] The spheroids were maintained in serum-free PHH medium.
as §1

[3] = test system: BSEP; settings: quoted in the discussion, no reference given; read-out: BSEP inhibition IC50; cited from earlier work
[4] = test system: PHH spheroids; test: Repeated-exposure toxicity in PHH spheroids with or without BA mixture, cellular ATP content; settings: for CC50: Homo sapiens; for CC50 / Cholestatic Index (EC50 (+BA) / EC50 (-BA)): one value per independent experiment; for Cholestatic Index (EC50 (+BA) / EC50 (-BA)): ATP;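 on all read-outs here: primary human hepatocyte spheroids dosed every second day with compound, with or without a bile acid mixture, viability read as cellular ATP by luminescence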
Procedure: Cryopreserved PHH (Bioreclamation IVT, USA) were thawed according to the supplier’s instructions. The cells were seeded in PHH medium (Williams’ medium E containing 100 units/ml penicillin, 100 μg/ml streptomycin, 2 mM L-glutamine, 10 μg/ml insulin, 5.5 μg/ml transferrin, 6.7 ng/ml sodium selenite, 100 nM dexamethasone) supplemented with 10% fetal bovine serum. The cells were seeded at a density of 1,500 viable cells per well in ultra-low attachment (ULA) plates (Corning). When PHH had reassembled into compact aggregates (day 4–6 after seeding), spheroids were shifted to serum-free PHH medium. […] The hepatocytes were derived from 5 male and 5 female donors and were aggregated into 3D microtissues in GravityPLUS™ hanging drop plates and cultivated and assayed in GravityTRAP™ plates. The spheroids were maintained in serum-free PHH medium.
Stock solutions of the compounds were diluted in culture medium to a maximal final DMSO concentration of 0.3% for PHH spheroids and 0.6% for HepaRG spheroids. Toxicity studies were started at day 8 and day 5 for PHH and HepaRG spheroids, respectively. Spheroids were treated every other day with the compounds in the presence or absence of the BA mixture. Cellular ATP content was determined as a marker of cell viability using the CellTiter-Glo Luminescent Cell Viability Assay (Promega, Sweden). When indicated, albumin concentrations were determined by ELISA (Bethyl laboratories, USA).
To evaluate the cholestatic risk of the tested compounds we introduced the cholestatic index (CIx). The CIx is defined as the ratio between the EC50-value from co-exposure to a compound and the BA mixture and the EC50-value from exposure to the compound alone.

[5] = multi-donor PHH spheroids (10 donors), co-exposure with BA mixture, albumin secretion, read-out: With BA EC50
[6] = multi-donor PHH spheroids (10 donors), compound alone, albumin secretion, read-out: Without BA EC50

SMILES	EC50 [2, 5] [µM]	EC50 [2, 6] [µM]	Cholestatic Index (EC50 (+BA) / EC50 (-BA)) ([2]; both, human, 14 days)	further results
Cc1c(C)c2c(c(C)c1O)CCC(C)(COc1ccc(CC3SC(=O)NC3=O)cc1)O2 (stereo not shown) [Troglitazone, troglitazone]	8.8	14	0.63	Cholestatic risk classification based on CIx ([1]; 8 days): cholestatic risk (compounds with a CIx ≤ 0.80 were considered to have cholestatic risk); CIx (mean of the independent experiments) ([1]; 8 days co-exposure with BAs vs compound alone): 0.71 ± 0.17; Cholestatic Index (EC50 (+BA) / EC50 (-BA)) ([1]; 8 days, ATP, one value per independent experiment): 0.56 and 0.90 and 0.67; IC50 [3]: 2.7 µM; CC50 ([4]; 192 h, read-out: Without BA EC50, PHH spheroids, 8 days repeated exposure, compound alone, ATP): 11 µM; CC50 ([4]; 336 h, read-out: Without BA EC50, PHH spheroids, 14 days repeated exposure, compound alone, ATP): 6.2 µM; Cholestatic risk classification based on CIx ([4]; PHH spheroids, 8 days): cholestatic risk (compounds with a CIx ≤ 0.80 were considered to have cholestatic risk); CIx (mean of the independent experiments) ([4]; PHH spheroids, 8 days co-exposure with BAs vs compound alone): 0.80 ± 0.17; Cholestatic Index (EC50 (+BA) / EC50 (-BA)) ([4]; PHH spheroids, 8 days): 0.99 and 0.72 and 0.67; Cholestatic Index (EC50 (+BA) / EC50 (-BA)) ([4]; PHH spheroids, 14 days): 0.45 and 0.67 and 0.86
CCC(=O)O[C@H]1[C@H](O[C@@H]2[C@@H](C)[C@H](O[C@H]3C[C@@](C)(OC)[C@@H](O)[C@H](C)O3)[C@@H](C)C(=O)O[C@H](CC)[C@@](C)(O)[C@H](O)[C@@H](C)C(=O)[C@H](C)C[C@@]2(C)O)O[C@H](C)C[C@@H]1N(C)C [Erythromycin estolate, erythromycin estolate]	18	28	–	Cholestatic Index (EC50 (+BA) / EC50 (-BA)) ([2]; multi-donor PHH spheroids (10 donors), 14 days, albumin secretion): 0.64; Cholestatic risk classification based on CIx ([2]; multi-donor PHH spheroids, 14 days): cholestatic risk (compounds with a CIx ≤ 0.80 were considered to have cholestatic risk)
Cc1ccc(C(=O)c2cc(O)c(O)c([N+](=O)[O-])c2)cc1 [Tolcapone, tolcapone]	13	14	0.93	–
Clc1ccccc1CN1CCc2sccc2C1 [Ticlopidine, ticlopidine]	21	23	–	–
CN(CCOc1ccc(CC2SC(=O)NC2=O)cc1)c1ccccn1 (stereo not shown) [Rosiglitazone, rosiglitazone]	17	19	0.89	–
